{"source": "paper PMC5218480", "about": "(PLoS ONE, 2017)", "tested_on": "MV-4-11 cells", "assay": "Gene expression microarray analysis (Affymetrix PrimeView) and GSEA", "type": "cell-based, human", "set-up": "RFU PODN (11730768_x_at) / Fold change /veh PODN (11730768_x_at) / RFU LINC00158 (11744669_a_at) / Fold change /veh LINC00158 (11744669_a_at) / RFU DUSP10 (11751237_a_at) / Fold change /veh DUSP10 (11751237_a_at) / RFU ID3 (11757404_x_at) / Fold change /veh ID3 (11757404_x_at) / RFU PLEKHG5 (11737974_s_at) / Fold change /veh PLEKHG5 (11737974_s_at) / RFU LRRC4B (11730491_at) / Fold change /veh LRRC4B (11730491_at) / RFU GIMAP4 (11747438_a_at) / Fold change /veh GIMAP4 (11747438_a_at) / RFU KRT8 (11758183_x_at) / Fold change /veh KRT8 (11758183_x_at) / RFU CNN1 (11734310_a_at) / Fold change /veh CNN1 (11734310_a_at) / RFU VPS37D (11726825_at) / Fold change /veh VPS37D (11726825_at) / RFU C10orf10 (11716522_x_at) / Fold change /veh C10orf10 (11716522_x_at) / RFU KIR2DL2 /// KIR2DL4 /// KIR2DL5A /// KIR2DL5B /// KIR2DS1 /// KIR2DS2 /// KIR2DS3 /// KIR2DS4 /// KIR3DL3 /// KIR3DL3 /// KIR3DS1 (11738374_at) / Fold change /veh KIR2DL2 /// KIR2DL4 /// KIR2DL5A /// KIR2DL5B /// KIR2DS1 /// KIR2DS2 /// KIR2DS3 /// KIR2DS4 /// KIR3DL3 /// KIR3DL3 /// KIR3DS1 (11738374_at) / RFU C1QL1 (11718748_at) / Fold change /veh C1QL1 (11718748_at) / RFU TMPRSS4 (11747572_a_at) / Fold change /veh TMPRSS4 (11747572_a_at) / RFU HAMP (11756126_x_at) / Fold change /veh HAMP (11756126_x_at) / RFU RNFT2 (11725882_a_at) / Fold change /veh RNFT2 (11725882_a_at) / RFU NR4A2 (11747474_a_at) / Fold change /veh NR4A2 (11747474_a_at) / RFU ABCC12 (11746883_a_at) / Fold change /veh ABCC12 (11746883_a_at) / RFU TMEM136 (11760407_x_at) / Fold change /veh TMEM136 (11760407_x_at) / RFU CLDN22 /// WWC2 (11732394_at) / Fold change /veh CLDN22 /// WWC2 (11732394_at) / RFU HLA-DPB1 (11760878_x_at) / Fold change /veh HLA-DPB1 (11760878_x_at) / RFU SPINT1 (11716480_a_at) / Fold change /veh SPINT1 (11716480_a_at) / RFU GAP43 (11754022_s_at) / Fold change /veh GAP43 (11754022_s_at) / RFU A4GNT (11735810_at) / Fold change /veh A4GNT (11735810_at) / RFU PRB3 (11715151_x_at) / Fold change /veh PRB3 (11715151_x_at) / RFU TUBB4B (11761932_at) / Fold change /veh TUBB4B (11761932_at) / RFU CAPN14 (11732068_a_at) / Fold change /veh CAPN14 (11732068_a_at) / RFU TMCC2 (11721928_a_at) / Fold change /veh TMCC2 (11721928_a_at) / RFU IRGQ (11745062_a_at) / Fold change /veh IRGQ (11745062_a_at) / RFU FAM174B (11720279_a_at) / Fold change /veh FAM174B (11720279_a_at) / RFU TMPRSS4 (11748680_a_at) / Fold change /veh TMPRSS4 (11748680_a_at) / RFU FAM212B (11763350_a_at) / Fold change /veh FAM212B (11763350_a_at) / RFU PLEKHG5 (11743358_a_at) / Fold change /veh PLEKHG5 (11743358_a_at) / RFU ZSCAN30 (11745921_a_at) / Fold change /veh ZSCAN30 (11745921_a_at) / RFU CMKLR1 (11741424_a_at) / Fold change /veh CMKLR1 (11741424_a_at) / RFU LOC101060620 /// MAPK8IP1 (11723275_at) / Fold change /veh LOC101060620 /// MAPK8IP1 (11723275_at) / RFU SPTSSB (11747773_x_at) / Fold change /veh SPTSSB (11747773_x_at) / RFU PRSS12 (11739890_at) / Fold change /veh PRSS12 (11739890_at) / RFU BIN1 (11741810_x_at) / Fold change /veh BIN1 (11741810_x_at) / RFU WNT11 (11732464_a_at) / Fold change /veh WNT11 (11732464_a_at) / RFU C10orf10 (11716521_a_at) / Fold change /veh C10orf10 (11716521_a_at) / RFU C5orf56 (11738089_at) / Fold change /veh C5orf56 (11738089_at) / RFU CYB561 (11721691_x_at) / Fold change /veh CYB561 (11721691_x_at) / RFU ANKRD19P (11752326_a_at) / Fold change /veh ANKRD19P (11752326_a_at) / RFU OR2T12 /// OR2T33 /// OR2T8 (11738714_s_at) / Fold change /veh OR2T12 /// OR2T33 /// OR2T8 (11738714_s_at) / RFU VCAN (11748164_a_at) / Fold change /veh VCAN (11748164_a_at) / RFU JSRP1 (11732532_at) / Fold change /veh JSRP1 (11732532_at) / RFU KRTAP10-11 (11738290_x_at) / Fold change /veh KRTAP10-11 (11738290_x_at) / RFU MYO3A (11730013_a_at) / Fold change /veh MYO3A (11730013_a_at) / RFU EBF3 (11725865_a_at) / Fold change /veh EBF3 (11725865_a_at) / RFU CAMK2N1 (11719241_x_at) / Fold change /veh CAMK2N1 (11719241_x_at) / RFU C5orf56 (11738088_a_at) / Fold change /veh C5orf56 (11738088_a_at) / RFU OLFML3 (11715873_a_at) / Fold change /veh OLFML3 (11715873_a_at) / RFU LOC100653217 /// NTM (11731650_a_at) / Fold change /veh LOC100653217 /// NTM (11731650_a_at) / RFU MAPK11 (11762145_a_at) / Fold change /veh MAPK11 (11762145_a_at) / RFU FIZ1 (11724087_x_at) / Fold change /veh FIZ1 (11724087_x_at) / RFU OASL (11726364_x_at) / Fold change /veh OASL (11726364_x_at) / RFU SOX15 (11748057_x_at) / Fold change /veh SOX15 (11748057_x_at) / RFU CD79A (11719716_a_at) / Fold change /veh CD79A (11719716_a_at) / RFU HIST1H1D (11736915_at) / Fold change /veh HIST1H1D (11736915_at) / RFU CASKIN2 (11723855_a_at) / Fold change /veh CASKIN2 (11723855_a_at) / RFU LOC730098 (11760151_x_at) / Fold change /veh LOC730098 (11760151_x_at) / RFU OR4N2 (11742367_at) / Fold change /veh OR4N2 (11742367_at) / RFU PRRT2 (11749266_a_at) / Fold change /veh PRRT2 (11749266_a_at) / RFU SNX32 (11753110_a_at) / Fold change /veh SNX32 (11753110_a_at) / RFU CDHR5 (11726645_a_at) / Fold change /veh CDHR5 (11726645_a_at) / RFU RCAN1 (11760418_a_at) / Fold change /veh RCAN1 (11760418_a_at) / RFU FAM167A (11723789_a_at) / Fold change /veh FAM167A (11723789_a_at) / RFU FAM26E (11764081_at) / Fold change /veh FAM26E (11764081_at) / RFU ISYNA1 (11749810_s_at) / Fold change /veh ISYNA1 (11749810_s_at) / RFU ACY1 (11761880_at) / Fold change /veh ACY1 (11761880_at) / RFU 11764098_at / Fold change /veh 11764098_at / RFU SAMD14 (11745864_x_at) / Fold change /veh SAMD14 (11745864_x_at) / RFU NPB (11741838_a_at) / Fold change /veh NPB (11741838_a_at) / RFU TMPRSS6 (11731388_a_at) / Fold change /veh TMPRSS6 (11731388_a_at) / RFU KRTAP10-2 (11738614_at) / Fold change /veh KRTAP10-2 (11738614_at) / RFU ARHGAP8 /// PRR5-ARHGAP8 (11727945_x_at) / Fold change /veh ARHGAP8 /// PRR5-ARHGAP8 (11727945_x_at) / RFU KRTAP5-7 /// NADSYN1 (11734609_at) / Fold change /veh KRTAP5-7 /// NADSYN1 (11734609_at) / RFU RASL12 (11751679_a_at) / Fold change /veh RASL12 (11751679_a_at) / RFU CDKN2B (11736163_a_at) / Fold change /veh CDKN2B (11736163_a_at) / RFU PRF1 (11729649_at) / Fold change /veh PRF1 (11729649_at) / RFU, ZNF638 /// ZNF638-IT1 / Fold change vs veh, ZNF638 /// ZNF638-IT1 / RFU, PANK3 / Fold change vs veh, PANK3 / RFU, SH3YL1 / Fold change vs veh, SH3YL1 / RFU, ZEB2 / Fold change vs veh, ZEB2 / RFU, NRIP1 / Fold change vs veh, NRIP1 / RFU, PTTG1IP / Fold change vs veh, PTTG1IP / RFU, CAPN2 / Fold change vs veh, CAPN2 / RFU, MED14 / Fold change vs veh, MED14 / RFU, SNORA58 / Fold change vs veh, SNORA58 / RFU, C1orf63 / Fold change vs veh, C1orf63 / RFU, LRRFIP1 / Fold change vs veh, LRRFIP1 / RFU, NDUFAF7 / Fold change vs veh, NDUFAF7 / RFU, SLC12A2 / Fold change vs veh, SLC12A2 / RFU, IBTK / Fold change vs veh, IBTK / RFU, ESF1 / Fold change vs veh, ESF1 / Fold change vs veh, TMEM50B / RFU, TAOK1 / Fold change vs veh, TAOK1 / RFU, ACBD3 / Fold change vs veh, ACBD3 / RFU, TMA16 / Fold change vs veh, TMA16 / RFU, RWDD3 / Fold change vs veh, RWDD3 / RFU, BCAT1 / Fold change vs veh, BCAT1 / RFU, EDEM3 / Fold change vs veh, EDEM3 / RFU, TMEM33 / Fold change vs veh, TMEM33 / RFU, WDR75 / Fold change vs veh, WDR75 / RFU, AHCTF1 / Fold change vs veh, AHCTF1 / RFU, TFRC / Fold change vs veh, TFRC / RFU, ZDHHC17 / Fold change vs veh, ZDHHC17 / RFU, NOM1 / Fold change vs veh, NOM1 / RFU, ARL8B / Fold change vs veh, ARL8B / RFU, ZBTB11 / Fold change vs veh, ZBTB11 / RFU, TAMM41 / Fold change vs veh, TAMM41 / RFU, KIAA1704 /// LOC100996395 / Fold change vs veh, KIAA1704 /// LOC100996395 / RFU, ING1 / Fold change vs veh, ING1 / RFU, TRMT61B / Fold change vs veh, TRMT61B / RFU, FUBP3 / Fold change vs veh, FUBP3 / RFU, TP53 / Fold change vs veh, TP53 / RFU, TNKS2 / Fold change vs veh, TNKS2 / RFU, ZFP14 / Fold change vs veh, ZFP14 / RFU, ACTR2 / Fold change vs veh, ACTR2 / RFU, PPP3R1 / Fold change vs veh, PPP3R1 / RFU, PIK3R1 / Fold change vs veh, PIK3R1 / RFU, HNRNPA1 / Fold change vs veh, HNRNPA1 / RFU, RNF170 / Fold change vs veh, RNF170 / RFU, ZNF28 / Fold change vs veh, ZNF28 / RFU, RNGTT / Fold change vs veh, RNGTT / RFU, OGT / Fold change vs veh, OGT / RFU, BRD1 / Fold change vs veh, BRD1 / RFU, MARS / Fold change vs veh, MARS / RFU, ZNF655 / Fold change vs veh, ZNF655 / RFU, FAHD1 / Fold change vs veh, FAHD1 / RFU, BDP1 / Fold change vs veh, BDP1 / RFU, LRRCC1 / Fold change vs veh, LRRCC1 / RFU, ARID1A / Fold change vs veh, ARID1A / RFU, ZNF146 / Fold change vs veh, ZNF146 / RFU, ZNF330 / Fold change vs veh, ZNF330 / RFU, GPN3 / Fold change vs veh, GPN3 / RFU, C9orf123 / Fold change vs veh, C9orf123 / RFU, N4BP2L2 / Fold change vs veh, N4BP2L2 / RFU, ARFIP1 / Fold change vs veh, ARFIP1 / RFU, FAM179B / Fold change vs veh, FAM179B / RFU, BCL10 / Fold change vs veh, BCL10 / RFU, UHRF1BP1L / Fold change vs veh, UHRF1BP1L / RFU, BET1 / Fold change vs veh, BET1 / RFU, CNOT2 / Fold change vs veh, CNOT2 / RFU, ZNF268 / Fold change vs veh, ZNF268 / Fold change vs veh, ZNF507 / RFU, DGCR2 / Fold change vs veh, DGCR2 / RFU, WDSUB1 / Fold change vs veh, WDSUB1 / Fold change vs veh, HSP90B1 /// MIR3652 / RFU, ADSS / Fold change vs veh, ADSS / RFU, GK / Fold change vs veh, GK / RFU, ZNF148 / Fold change vs veh, ZNF148 / RFU, TAF9 / Fold change vs veh, TAF9 / RFU, SLC1A5 / Fold change vs veh, SLC1A5 / RFU, SLMO2 / Fold change vs veh, SLMO2 / RFU, ABCC4 / Fold change vs veh, ABCC4 / RFU, LOC101060439 /// RAP1B / Fold change vs veh, LOC101060439 /// RAP1B / RFU, RFX7 / Fold change vs veh, RFX7 / RFU, GTPBP10 / Fold change vs veh, GTPBP10 / RFU, CNEP1R1 / Fold change vs veh, CNEP1R1 / RFU, BIVM-ERCC5 /// ERCC5 / Fold change vs veh, BIVM-ERCC5 /// ERCC5 / RFU, ILF3 / Fold change vs veh, ILF3 / RFU 11762660_at / Fold change /veh 11762660_at / RFU VCAN (11757783_s_at) / Fold change /veh VCAN (11757783_s_at) / RFU DDX43 (11728927_at) / Fold change /veh DDX43 (11728927_at) / RFU KRT8 (11758188_x_at) / Fold change /veh KRT8 (11758188_x_at) / RFU NKD1 (11759106_at) / Fold change /veh NKD1 (11759106_at) / RFU SRD5A1 (11742802_a_at) / Fold change /veh SRD5A1 (11742802_a_at) / RFU TPSAB1 /// TPSB2 (11721975_s_at) / Fold change /veh TPSAB1 /// TPSB2 (11721975_s_at) / RFU GSTM3 (11746129_a_at) / Fold change /veh GSTM3 (11746129_a_at) / RFU IL23R (11737362_x_at) / Fold change /veh IL23R (11737362_x_at) / RFU TMEM51 (11727254_a_at) / Fold change /veh TMEM51 (11727254_a_at) / RFU PIWIL2 (11732686_x_at) / Fold change /veh PIWIL2 (11732686_x_at) / RFU ORM1 (11744905_x_at) / Fold change /veh ORM1 (11744905_x_at) / RFU CCDC152 (11743942_at) / Fold change /veh CCDC152 (11743942_at) / RFU ECM1 (11717891_a_at) / Fold change /veh ECM1 (11717891_a_at) / RFU IL23R (11748794_a_at) / Fold change /veh IL23R (11748794_a_at) / RFU TNFAIP8L3 (11732012_x_at) / Fold change /veh TNFAIP8L3 (11732012_x_at) / RFU MBOAT4 (11741988_at) / Fold change /veh MBOAT4 (11741988_at) / RFU 11764193_at / Fold change /veh 11764193_at / RFU TMEM53 (11763286_at) / Fold change /veh TMEM53 (11763286_at) / RFU MAGEB2 (11727129_at) / Fold change /veh MAGEB2 (11727129_at) / RFU TMEM200A (11744735_a_at) / Fold change /veh TMEM200A (11744735_a_at) / RFU CCDC152 (11751479_a_at) / Fold change /veh CCDC152 (11751479_a_at) / RFU FAM211A (11726209_a_at) / Fold change /veh FAM211A (11726209_a_at) / RFU RGS16 (11746705_a_at) / Fold change /veh RGS16 (11746705_a_at) / RFU VCAN (11755009_s_at) / Fold change /veh VCAN (11755009_s_at) / RFU RHOB (11743442_s_at) / Fold change /veh RHOB (11743442_s_at) / RFU RGS16 (11720943_a_at) / Fold change /veh RGS16 (11720943_a_at) / RFU RGS16 (11720944_at) / Fold change /veh RGS16 (11720944_at) / RFU, VPS4B / Fold change vs veh, VPS4B / RFU, CREB1 / Fold change vs veh, CREB1 / RFU, DNAJC13 / Fold change vs veh, DNAJC13 / RFU, GNAQ / Fold change vs veh, GNAQ / RFU, CDK5R1 / Fold change vs veh, CDK5R1 / RFU, ZRANB3 / Fold change vs veh, ZRANB3 / RFU, CUL4A / Fold change vs veh, CUL4A / RFU, CCNY / Fold change vs veh, CCNY / RFU, UFL1 / Fold change vs veh, UFL1 / RFU, COG3 / Fold change vs veh, COG3 / RFU, DIAPH2 / Fold change vs veh, DIAPH2 / RFU, SKA2 / Fold change vs veh, SKA2 / RFU, AFF3 / Fold change vs veh, AFF3 / RFU, LMF1 / Fold change vs veh, LMF1 / RFU, IPO11 / Fold change vs veh, IPO11 / RFU, DFFB / Fold change vs veh, DFFB / RFU, FOXP1 / Fold change vs veh, FOXP1 / RFU, CARD8 / Fold change vs veh, CARD8 / RFU, STRN3 / Fold change vs veh, STRN3 / RFU, ADK / Fold change vs veh, ADK / RFU, RASSF2 / Fold change vs veh, RASSF2 / RFU, WIPF1 / Fold change vs veh, WIPF1 / RFU, LARP1B / Fold change vs veh, LARP1B / RFU, RASA1 / Fold change vs veh, RASA1 / RFU, RB1 / Fold change vs veh, RB1 / RFU, PPFIA1 / Fold change vs veh, PPFIA1 / RFU, MAT2A / Fold change vs veh, MAT2A / RFU, CCT5 / Fold change vs veh, CCT5 / RFU, WDR92 / Fold change vs veh, WDR92 / RFU, CUX1 / Fold change vs veh, CUX1 / RFU, TTC7A / Fold change vs veh, TTC7A / RFU, TMEM135 / Fold change vs veh, TMEM135 / RFU, DEPTOR / Fold change vs veh, DEPTOR / RFU, CPM / Fold change vs veh, CPM / RFU, DNAJB6 / Fold change vs veh, DNAJB6 / RFU, CACNA2D3 / Fold change vs veh, CACNA2D3 / RFU, DTX4 / Fold change vs veh, DTX4 / RFU, TFCP2 / Fold change vs veh, TFCP2 / RFU, GMCL1 /// GMCL1P1 / Fold change vs veh, GMCL1 /// GMCL1P1 / RFU, AEBP2 / Fold change vs veh, AEBP2 / RFU, SNHG1 /// SNORD22 /// SNORD25 /// SNORD26 /// SNORD27 /// SNORD28 /// SNORD29 /// SNORD31 / Fold change vs veh, SNHG1 /// SNORD22 /// SNORD25 /// SNORD26 /// SNORD27 /// SNORD28 /// SNORD29 /// SNORD31 / Fold change (Aza/veh), C12orf56 (ProbeSet 11735607_a_at) / Fold change (ACY-1035/veh), C12orf56 (ProbeSet 11735607_a_at) / Fold change (Aza/veh), FGFR1OP (ProbeSet 11751329_s_at) / Fold change (ACY-1035/veh), FGFR1OP (ProbeSet 11751329_s_at) / Fold change (Aza/veh), VPS36 (ProbeSet 11739960_a_at) / Fold change (ACY-1035/veh), VPS36 (ProbeSet 11739960_a_at) / RFU SYPL1 (11715823_x_at) / Fold change /veh SYPL1 (11715823_x_at) / RFU IGFBP7 (11715501_s_at) / Fold change /veh IGFBP7 (11715501_s_at) / RFU REEP3 (11722064_at) / Fold change /veh REEP3 (11722064_at) / RFU IGLL1 (11728026_x_at) / Fold change /veh IGLL1 (11728026_x_at): dose or concentration left out as unconfirmed", "conditions": "MV-4-11 cells, 48 hours", "data": [{"smiles": "Nc1ncn([C@@H]2O[C@H](CO)[C@@H](O)[C@H]2O)c(=O)n1", "note": "[azacitidine]", "values": [{"measurement": "Fold change /veh TMEM53 (11763286_at)", "result": 1.48}]}]}
